Data taken from PMC11305403, “Design, synthesis, and antiproliferative screening of new quinoline derivatives bearing a cis-vinyl triamide motif as apoptosis activators and EGFR-TK inhibitors” (RSC Advances, 2024).

How the values were obtained:
MCF-7 cell line = experiment: MTT cytotoxic / antiproliferative activity against MCF-7 cell line; assay type: cell-based; conditions: for IC50: MTT assay, MCF-7 breast adenocarcinoma cells, 24 h treatment; for fold more potent antiproliferative activity than the reference STU: MCF-7, relative to STU IC50
Protocol: S4.2.1. Cytotoxic activity evaluation […]
adenocarcinoma (MCF-7) cell line. Cell viability assay was assessed using MTT assay […]
under 5% CO2. After incubation, the cells were treated with different concentrations of the test hybrid 5 and 6a-h and incubated for 24 h, then 20 µl of MTT solution at 5 […]
Dimethyl sulphoxide (DMSO) in […]
volume of 100 µl was added to each well to dissolve the purple formazan that had formed. The color intensity of the formazan product, which represents the growth […]
570 nm absorbance. The experimental conditions were carried out with at least three replicates, and the experiments were repeated at least three times. […]

MCF-7 cells [1] = experiment: Cell cycle analysis by flow cytometry (PI staining) in MCF-7 cells; assay type: cell-based; conditions: MCF-7, 1.87 μM, 48 h
Text: The cell cycle is related to a series of events responsible for cell division and duplication.[42] The cell cycle presents three distinct phases: G1, S and G2/M phase.[43] Due to the importance of the cell cycle in the process of tumor progression, we evaluated if the cell growth inhibition in MCF-7 occurred due to cell cycle arrest using FACS method. In the present study, flow cytometric measurement was utilized to investigate the effect of quinoline tethered [2-(4-methoxyphenyl)-cis-vinyl] triamide 6f on cellular cycle progression in tested breast cancer cells. In the test, MCF-7 cells were treated with quinoline tethered [2-(4-methoxyphenyl)-cis-vinyl] triamide 6f at a concentration of 1.87 μM, then incubated for 48 h. The cellular cycle distribution was analyzed to identify the definite phase at which quinoline tethered [2-(4-methoxyphenyl)-cis-vinyl] triamide 6f can arrest the cell cycle. […] It is observed that the percentage of cells at G1 phase was increased by 1.2-fold compared to controls (Fig. 3).
S4.2.1. Cytotoxic activity evaluation
To measure the cytotoxic actvity of the prepared derivatives 5 and 6a-h in breast adenocarcinoma (MCF-7) cell line. Cell viability assay was assessed using MTT assay method. Cells at density of 1 x 104 were seeded in a 96-well plate at 37 °C for 24 h under 5% CO2. After incubation, the cells were treated with different concentrations of the test hybrid 5 and 6a-h and incubated for 24 h, then 20 µl of MTT solution at 5 mg/mL was applied and incubated for 4 h at 37 °C. […] The color intensity of the formazan product, which represents the growth condition of the cells, is quantified by using an ELISA plate reader (EXL 800, USA) at 570 nm absorbance. […]
Cell cycle analysis in MCF-7 cells was investigated using fluorescent […] (BioVision EZCellTM Cell Cycle Analysis Kit Catalog #K920) by flow cytometry assay. […] The samples were immediately analyzed using Facs Calibur flow cytometer (Becton and Dickinson, Heidelberg, […]

MCF-7 cells [2] = experiment: Annexin V-FITC/PI apoptosis assay by flow cytometry in MCF-7 cells; assay type: cell-based; conditions: 48 h
Protocol: Apoptosis play an important role in organogenesis and in crafting complex tissues during embryonic growth, and in the preservation of tissue homeostasis in adult organism.[44] Numerous clinical disorders, including cancer, autoimmune illness and infectious diseases, are characterised by the deregulation of apoptosis.[45] To ensure the ability of quinoline tethered [2-(4-methoxyphenyl)-cis-vinyl] triamide 6f to activate apoptosis, flow cytometric measurement was carried out using Annexin V which binds to phophatidylserine declared on the outer layed of apoptotic cells and appears fluorescent green and PI which stains DNA and penetrates only dead cells. […] Meanwhile, the proportion of late apoptotic cells rose from 0.21% to 16.65% compared to DMOS controls (Fig. 4). […]
S4.2.3. Apoptosis assay for compound 6f
Apoptosis in MCF-7 cells was investigated using fluorescent Annexin V-FITC/ PI detection kit (BioVision Annexin V-FITC Apoptosis Detection Kit, Catalog #: K101) by flow cytometry assay. MCF-7 cells at a density of 2 × 10^5 per well were treated with compound 6f at the IC50 (µM) for 48 h, then the cells were harvested and stained with Annexin V-FITC/ PI dye for 15 min in the dark at 37 °C. The samples were immediately analyzed using FACS Calibur flow cytometer (Becton and Dickinson, […]
S4.2.4. EGFR kinase Assay […]
according to manufacturer’s instructions using # BPS Bioscience EGFR Kinase Assay

MCF-7 cells [3] = experiment: Mitochondrial membrane potential (MMP) by flow cytometry in MCF-7 cells; assay type: cell-based
Text: A major part of apoptosis process is played by mitochondria.[46] Several active proteins such as cytochrome C and factor that induces apoptosis are two of the active proteins found in mitochondria.[47] The release of such proteins after inhibition of mitochondrial membrane potential (MMP) is crucial in the propagation of apoptosis.[48] […] This decrease in MMP was linked to an increase in Annexin V positive cells. […] According to this, quinoline tethered [2-(4-methoxyphenyl)-cis-vinyl] triamide 6f cause MCF-7 cells to become dysfunction in their mitochondria, which in turn trigger apoptotic cellular death. These outcomes were consistent with early findings that EGFR-TK inhibitors promote apoptosis via the mitochondrial route.

EGFR tyrosine kinase = target: T1, EGFR tyrosine kinase (Homo sapiens, UniProt P00533); experiment: EGFR kinase assay (BPS Bioscience EGFR Kinase Assay Kit); assay type: biochemical; conditions: read-out: EGFR inhibitory activity IC50
T1 construct: purchased BPS Bioscience 40321
T1 sequence (P00533 25-1210): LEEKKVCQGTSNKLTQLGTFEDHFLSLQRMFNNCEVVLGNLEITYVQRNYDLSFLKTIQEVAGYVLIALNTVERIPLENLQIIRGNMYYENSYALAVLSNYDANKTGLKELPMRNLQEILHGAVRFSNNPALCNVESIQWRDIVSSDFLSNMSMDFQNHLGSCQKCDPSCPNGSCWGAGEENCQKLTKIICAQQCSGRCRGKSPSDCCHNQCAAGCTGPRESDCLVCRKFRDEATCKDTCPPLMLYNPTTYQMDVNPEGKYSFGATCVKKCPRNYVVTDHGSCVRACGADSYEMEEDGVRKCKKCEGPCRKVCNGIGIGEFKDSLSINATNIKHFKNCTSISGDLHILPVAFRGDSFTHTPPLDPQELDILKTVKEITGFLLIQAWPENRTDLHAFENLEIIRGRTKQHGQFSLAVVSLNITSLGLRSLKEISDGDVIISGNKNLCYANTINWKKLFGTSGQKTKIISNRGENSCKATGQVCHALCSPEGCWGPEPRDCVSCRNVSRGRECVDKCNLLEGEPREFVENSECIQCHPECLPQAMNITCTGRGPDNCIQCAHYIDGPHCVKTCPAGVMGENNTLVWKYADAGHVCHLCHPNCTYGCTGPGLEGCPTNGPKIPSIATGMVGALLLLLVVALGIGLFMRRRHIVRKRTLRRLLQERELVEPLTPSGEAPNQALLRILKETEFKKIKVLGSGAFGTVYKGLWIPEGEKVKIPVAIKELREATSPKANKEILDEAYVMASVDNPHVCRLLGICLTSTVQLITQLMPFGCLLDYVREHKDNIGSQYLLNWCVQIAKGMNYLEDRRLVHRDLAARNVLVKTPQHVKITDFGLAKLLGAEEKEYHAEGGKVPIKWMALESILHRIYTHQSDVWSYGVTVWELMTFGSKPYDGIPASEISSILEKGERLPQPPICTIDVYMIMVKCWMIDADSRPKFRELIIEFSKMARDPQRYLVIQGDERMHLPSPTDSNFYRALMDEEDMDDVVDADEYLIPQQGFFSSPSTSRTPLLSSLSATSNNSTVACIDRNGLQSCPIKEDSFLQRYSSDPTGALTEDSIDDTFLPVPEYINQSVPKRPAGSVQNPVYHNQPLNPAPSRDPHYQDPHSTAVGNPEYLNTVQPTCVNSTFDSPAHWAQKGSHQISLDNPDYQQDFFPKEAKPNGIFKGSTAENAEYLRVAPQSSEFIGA
Text: immediately analyzed using FACS Calibur flow cytometer (Becton and Dickinson,
S4.2.4. EGFR kinase Assay
(1 picture or pasted object on this page, not shown here)

Structure (SMILES) | melting point | IC50 (MCF-7 cell line; Homo sapiens, MCF7, 24 h) | fold more potent antiproliferative activity than the reference STU (MCF-7 cell line) | further results
COc1cc(/C=C(\NC(=O)c2ccccc2)C(=O)NNC(=O)c2cc(-c3ccc(Br)cc3)nc3ccccc23)cc(OC)c1OC [Compound 6h, (Z)-N-(3-(2-(2-(4-Bromophenyl)quinoline-4-carbonyl)hydrazinyl)-3-oxo-1-(3,4,5-trimethoxyphenyl)prop-1-en-2-yl)benzamide] | 169 to 171 °C | 15.6 ± 0.42 µM | – | –
O=C(NNC(=O)c1cc(-c2ccc(Br)cc2)nc2ccccc12)/C(=C/c1ccco1)NC(=O)c1ccccc1 [Compound 5, (Z)-N-(3-(2-(2-(4-Bromophenyl)quinoline-4-carbonyl)hydrazinyl)-1-(furan-2-yl)-3-oxoprop-1-en-2-yl)benzamide] | 188 to 190 °C | 6.6 ± 0.21 µM | 1.06–7.10 fold | –
CC(=O)Oc1c(Br)cc(/C=C(\NC(=O)c2ccccc2)C(=O)NNC(=O)c2cc(-c3ccc(Br)cc3)nc3ccccc23)cc1Br [Compound 6g, (Z)-4-(2-Benzamido-3-(2-(2-(4-bromophenyl)quinoline-4-carbonyl)hydrazinyl)-3-oxoprop-1-enyl)-2,6-dibromophenyl acetate] | 181 to 183 °C | 30.4 ± 0.98 µM | – | –
COc1ccc(/C=C(\NC(=O)c2ccccc2)C(=O)NNC(=O)c2cc(-c3ccc(Br)cc3)nc3ccccc23)cc1 [Compound 6f, (Z)-N-(3-(2-(2-(4-Bromophenyl)quinoline-4-carbonyl)hydrazinyl)-1-(4-methoxyphenyl)-3-oxoprop-1-en-2-yl)benzamide] | – | 1.88 µM | 1.06–7.10 fold | IC50 (MCF-7 cell line): 1.87 ± 0.06 µM; fold increase of percentage of cells at G1 phase compared to controls (MCF-7 cells [1]): 1.2 fold; percentage of cells at G2/M phase (%DIP G2/M) (MCF-7 cells [1]; control 14.04%): 7.12%; percentage of cells at S phase (%DIP S) (MCF-7 cells [1]; control 34.30%): 29.32%; percentage of primary (early) apoptotic cells (MCF-7 cells [2]; MCF-7, 1.87 μM (IC50), lower right quadrant, DMSO control 0.66%): 9.52%; proportion of late apoptotic cells (MCF-7 cells [2]; MCF-7, 1.87 μM (IC50), upper right quadrant, DMSO control 0.21%): 16.65%; fold increase of early apoptosis compared to controls (MCF-7 cells [2]; MCF-7, 1.87 μM): ~14.4 fold; fold increase of late apoptosis compared to controls (MCF-7 cells [2]; MCF-7, 1.87 μM): ~79.3 fold; decrease of MMP of MCF-7 cells compared to controls (percentage change value) (MCF-7 cells [3]; MCF-7, 1.87 μM (IC50 dose), vs DMSO controls): 57.93%; MMPΨ / MCF-7 (flow cytometry reading) (MCF-7 cells [3]; MCF-7, 1.87 μM, control 58497): 24610; IC50 (EGFR tyrosine kinase): 0.19 µM

The next lines start with results.

melting point | Structure (SMILES) | IC50 (MCF-7 cell line; Homo sapiens, MCF7, 24 h) | fold more potent antiproliferative activity than the reference STU (MCF-7 cell line) | further results
191 to 193 °C | O=C(NNC(=O)c1cc(-c2ccc(Br)cc2)nc2ccccc12)/C(=C/c1ccc(Br)cc1)NC(=O)c1ccccc1 [Compound 6c, (Z)-N-(1-(4-Bromophenyl)-3-(2-(2-(4-bromophenyl)quinoline-4-carbonyl)hydrazinyl)-3-oxoprop-1-en-2-yl)benzamide] | 19.2 ± 0.62 µM | – | –
211 to 213 °C | Cc1ccc(/C=C(\NC(=O)c2ccccc2)C(=O)NNC(=O)c2cc(-c3ccc(Br)cc3)nc3ccccc23)cc1 [Compound 6e, (Z)-N-(3-(2-(2-(4-Bromophenyl)quinoline-4-carbonyl)hydrazinyl)-3-oxo-1-p-tolylprop-1-en-2-yl)benzamide] | 1.87 µM | 1.06–7.10 fold | IC50 (MCF-7 cell line): 3.03 ± 0.1 µM
207 to 209 °C | O=C(NNC(=O)c1cc(-c2ccc(Br)cc2)nc2ccccc12)/C(=C/c1ccc([N+](=O)[O-])cc1)NC(=O)c1ccccc1 [Compound 6d, (Z)-N-(3-(2-(2-(4-Bromophenyl)quinoline-4-carbonyl)hydrazinyl)-1-(4-nitrophenyl)-3-oxoprop-1-en-2-yl)benzamide] | 12.4 ± 0.4 µM | 1.06–7.10 fold | –
185 to 187 °C | O=C(NNC(=O)c1cc(-c2ccc(Br)cc2)nc2ccccc12)/C(=C/c1ccc(Cl)cc1)NC(=O)c1ccccc1 [Compound 6b, (Z)-N-(3-(2-(2-(4-Bromophenyl)quinoline-4-carbonyl)hydrazinyl)-1-(4-chlorophenyl)-3-oxoprop-1-en-2-yl)benzamide] | 8.29 ± 0.27 µM | 1.06–7.10 fold | –
177 to 179 °C | O=C(NNC(=O)c1cc(-c2ccc(Br)cc2)nc2ccccc12)/C(=C/c1ccc(F)cc1)NC(=O)c1ccccc1 [Compound 6a, (Z)-N-(3-(2-(2-(4-Bromophenyl)quinoline-4-carbonyl)hydrazinyl)-1-(4-fluorophenyl)-3-oxoprop-1-en-2-yl)benzamide] | 59.8 ± 1.93 µM | – | –
